{"source": "paper PMC10044120", "about": "“Potent and selective covalent inhibition of the papain-like protease from SARS-CoV-2” (Nature Communications, 2023)", "type_in_all_cases": "cell-based", "key": {"[1]": {"tested_on": "SARS-CoV-2 Delta (B.1.617.2)", "assay": "CPE assay, neutral red, Vero E6 cells with 2 μM CP-100356, Delta"}, "[2]": {"tested_on": "SARS-CoV-2 Delta (B.1.617.2)", "assay": "microbe, parasite or virus in culture"}, "[3]": {"tested_on": "SARS-CoV-2 Omicron (B.1.1.529)", "assay": "microbe, parasite or virus in culture"}}, "note": "“And” between values parts separate entries of the source, which are not always exact repeats. Identical values can stand only once.", "data": [{"smiles": "COC(=O)/C=C/C(=O)NNC(=O)CCc1ccccc1C(=O)N[C@H](C)c1cccc2ccccc12", "note": "[Compound 7, methyl(R,E)-4-(2-(3-(2-((1-(naphthalen-1 yl)ethyl)carbamoyl)phenyl)propanoyl)hydrazineyl)-4-oxobut-2-enoate]", "values": [{"measurement": "Percent Cytopathic Effect (Neutral Red)", "setting": "[1]", "value": "49.9% and 76.0% and 99.5% and 99.2%"}, {"measurement": "Virus Titer", "setting": "[2]", "value": "4.5 CCID50/mL (Log10) and 4.7 CCID50/mL (Log10) and 5.0 CCID50/mL (Log10)"}, {"measurement": "Virus Titer", "setting": "[3]", "value": "2.5 CCID50/mL (Log10) and 3.0 CCID50/mL (Log10)"}]}]}
